# Laboratory results published in ChEMBL document CHEMBL3779887, “Robenidine Analogues as Gram-Positive Antibacterial Agents” (J Med Chem, 2016).
# Activity calls are given as the source filed them. The calls are words filed in the database; no cut-off is given here.
# Key:
# [1] = Lipophilicity, logD of the compound at pH 7.4; assay type: physicochemical; conditions: buffer
# Staphylococcus aureus [2] = test: Bactericidal activity against Methicillin-sensitive Staphylococcus aureus ATCC 29213 assessed as log reduction in bacterial cell number at 8 times MIC after 24 hrs by time-kill curve analysis; assay type: functional, organism-based
# Staphylococcus aureus [3] = test: Antibacterial activity against Staphylococcus aureus ATCC 29213 after 20 to 24 hrs in presence of 2% heat inactivated bovine serum; assay type: functional
# Staphylococcus aureus [4] = test: Bactericidal activity against methicillin-resistant Staphylococcus aureus clinical isolate after 24 and 48 hrs; assay type: functional
# [5] = Selectivity index, ratio of GI50 for human HEL299 cells to MIC50 for methicillin-sensitive Staphylococcus aureus clinical isolate; assay type: functional, HEL 299
# Staphylococcus aureus [6] = test: Bactericidal activity against methicillin-sensitive Staphylococcus aureus ATCC 29213 assessed as log reduction in bacterial cell number at 2 times MIC after 8 hrs by time-kill curve analysis; assay type: functional
# Staphylococcus aureus [7] = test: Bactericidal activity against methicillin-sensitive Staphylococcus aureus clinical isolate USA300 assessed as log reduction in bacterial cell number at MIC after 8 hrs by time-kill curve analysis; assay type: functional
# Staphylococcus aureus [8] = test: Ratio of MBC for methicillin-sensitive Staphylococcus aureus ATCC 49775 to MIC90 for methicillin-sensitive Staphylococcus aureus ATCC 49775; assay type: functional
# Staphylococcus aureus [9] = test: Bactericidal activity against Methicillin-sensitive Staphylococcus aureus ATCC 29213 assessed as log reduction in bacterial cell number at 2 times MIC after 24 hrs by time kill curve analysis; assay type: functional, organism-based
# Staphylococcus aureus [10] = test: Bactericidal activity against Methicillin-sensitive Staphylococcus aureus ATCC 29213 assessed as log reduction in bacterial cell number at 4 times MIC after 24 hrs by time kill curve analysis; assay type: functional, organism-based
# Staphylococcus aureus [11] = test: Bactericidal activity against methicillin-sensitive Staphylococcus aureus ATCC 49775 after 24 and 48 hrs; assay type: functional
# Escherichia coli [12] = test: Antibacterial activity against Escherichia coli ATCC 25922 after 20 to 24 hrs; assay type: functional
# [13] = Cytotoxicity against human HepG2 cells after 24 hrs by WST-1 based colorimetric assay; assay type: cell-based
# [14] = Half life of compound in mouse liver microsomes; assay type: ADME
# Staphylococcus aureus [15] = test: Ratio of MBC for methicillin-sensitive Staphylococcus aureus ATCC 29213 to MIC90 for methicillin-sensitive Staphylococcus aureus ATCC 29213; assay type: functional
# Staphylococcus aureus [16] = test: Antibacterial activity against methicillin-sensitive Staphylococcus aureus ATCC 29213 after 20 to 24 hrs in presence of 50% heat inactivated bovine serum
# Staphylococcus aureus [17] = test: Antibacterial activity against methicillin-resistant Staphylococcus aureus clinical isolate after 20 to 24 hrs; assay type: functional
# [18] = Selectivity index, ratio of GI50 for human HepG2 cells to MIC50 for methicillin-resistant Staphylococcus aureus clinical isolate; assay type: functional
# Staphylococcus aureus [19] = test: Antibacterial activity against methicillin-sensitive Staphylococcus aureus ATCC 49775 after 20 to 24 hrs; assay type: functional
# Staphylococcus aureus [20] = test: Bactericidal activity against […] Staphylococcus aureus clinical isolate USA300 assessed as log reduction in bacterial cell number at 8 times MIC after 8 hrs by time-kill curve analysis; assay type: functional
# Enterococcus = test: Antibacterial activity against vancomycin-resistant Enterococcus after 20 to 24 hrs; assay type: functional
# Staphylococcus aureus [21] = test: Antibacterial activity against methicillin-sensitive Staphylococcus aureus ATCC 49775 after 20 to 24 hrs in presence of 50% heat inactivated bovine serum; assay type: functional
# [22] = Toxicity in sheep erythrocytes assessed as hemolysis at 600 uM after 30 mins; assay type: cell-based, Ovis aries; conditions: erythrocyte, 0.5 h
# Staphylococcus aureus [23] = test: Antibacterial activity against methicillin-sensitive Staphylococcus aureus ATCC 29213 after 20 to 24 hrs in presence of 50% heat inactivated bovine serum; remark: listed apart in the source
# Staphylococcus aureus [24] = test: Antibacterial activity against methicillin-sensitive Staphylococcus aureus ATCC 29213 after 20 to 24 hrs in presence of 50% heat inactivated bovine serum; assay type: functional
# Staphylococcus aureus [25] = test: Bactericidal activity against methicillin-sensitive Staphylococcus aureus ATCC 6538 after 24 and 48 hrs; assay type: functional
# Staphylococcus aureus [26] = test: Ratio of MBC for methicillin-sensitive Staphylococcus aureus ATCC 25923 to MIC90 for methicillin-sensitive Staphylococcus aureus ATCC 25923; assay type: functional
# [27] = Selectivity index, ratio of GI50 for human HEL299 cells to MIC50 for methicillin-resistant Staphylococcus aureus clinical isolate; assay type: functional, HEL 299
# Staphylococcus aureus [28] = test: Bactericidal activity against methicillin-sensitive Staphylococcus aureus ATCC 25923 after 24 and 48 hrs; assay type: functional
# Staphylococcus aureus [29] = test: Antibacterial activity against methicillin-sensitive Staphylococcus aureus ATCC 25923 after 20 to 24 hrs; assay type: functional
# Staphylococcus aureus [30] = test: Ratio of MBC for methicillin-sensitive Staphylococcus aureus ATCC 6538 to MIC90 for methicillin-sensitive Staphylococcus aureus ATCC 6538; assay type: functional
# Staphylococcus aureus [31] = test: Bactericidal activity against […] Staphylococcus aureus clinical isolate USA300 assessed as log reduction in bacterial cell number at 2 times MIC after 24 hrs by time-kill curve analysis; assay type: functional, organism-based
# Staphylococcus aureus [32] = test: Antibacterial activity against methicillin-resistant Staphylococcus aureus after 20 to 24 hrs; assay type: functional
# [33] = Intrinsic clearance in mouse liver microsomes assessed per mg of protein; assay type: ADME; conditions: read-out: CLH
# Staphylococcus aureus [34] = test: Antibacterial activity against methicillin-sensitive Staphylococcus aureus ATCC 6538 after 20 to 24 hrs in presence of 50% heat inactivated bovine serum; assay type: functional
# Staphylococcus aureus [35] = test: Bactericidal activity against […] Staphylococcus aureus clinical isolate USA300 assessed as log reduction in bacterial cell number at 8 times MIC after 24 hrs by time-kill curve analysis; assay type: functional, organism-based
# [36] = Selectivity index, ratio of GI50 for human HepG2 cells to MIC50 for methicillin-sensitive Staphylococcus aureus clinical isolate; assay type: functional
# [37] = Cytotoxicity against human HEL299 cells after 24 hrs by WST-1 based colorimetric assay; assay type: cell-based, HEL 299
# [38] = Intrinsic clearance in human liver microsomes assessed per mg of protein; assay type: ADME; conditions: read-out: CLH
# Staphylococcus aureus [39] = test: Bactericidal activity against […] Staphylococcus aureus clinical isolate USA300 assessed as log reduction in bacterial cell number at 4 times MIC after 24 hrs by time-kill curve analysis; assay type: functional, organism-based
# [40] = Solubility of the compound at pH 2; assay type: physicochemical; conditions: buffer
# Staphylococcus aureus [41] = test: Antibacterial activity against methicillin-sensitive Staphylococcus aureus ATCC 6538 after 20 to 24 hrs; assay type: functional
# Staphylococcus aureus [42] = test: Bactericidal activity against […] Staphylococcus aureus clinical isolate USA300 assessed as log reduction in bacterial cell number at 2 times MIC after 8 hrs by time-kill curve analysis; assay type: functional
# Staphylococcus aureus [43] = test: Bactericidal activity against […] Staphylococcus aureus clinical isolate USA300 assessed as log reduction in bacterial cell number at MIC after 24 hrs by time-kill curve analysis; assay type: functional, organism-based
# Staphylococcus aureus [44] = test: Bactericidal activity against methicillin-sensitive Staphylococcus aureus ATCC 29213 after 24 and 48 hrs; assay type: functional
# Staphylococcus aureus [45] = test: Bactericidal activity against […] Staphylococcus aureus clinical isolate USA300 assessed as log reduction in bacterial cell number at 4 times MIC after 8 hrs by time-kill curve analysis; assay type: functional
# [46] = Solubility of the compound at pH 6.5; assay type: physicochemical; conditions: buffer
# Staphylococcus aureus [47] = test: Bactericidal activity against Methicillin-sensitive Staphylococcus aureus ATCC 29213 assessed as log reduction in bacterial cell number at MIC after 8 hrs by time kill curve analysis
# Staphylococcus aureus [48] = test: Bactericidal activity against methicillin-sensitive Staphylococcus aureus ATCC 29213 assessed as log reduction in bacterial cell number at 8 times MIC after 8 hrs by time-kill curve analysis; assay type: functional
# Staphylococcus aureus [49] = test: Bactericidal activity against methicillin-sensitive Staphylococcus aureus ATCC 29213 assessed as log reduction in bacterial cell number at 4 times MIC after 8 hrs by time-kill curve analysis; assay type: functional
# Pseudomonas aeruginosa [50] = test: Antibacterial activity against Pseudomonas aeruginosa ATCC 27853 after 20 to 24 hrs in presence of polymyxin B nonapeptide; assay type: functional
# [51] = Half life of compound in human liver microsomes; assay type: ADME
# Escherichia coli [52] = test: Antibacterial activity against Escherichia coli ATCC 25922 after 20 to 24 hrs in presence of polymyxin B nonapeptide; assay type: functional
# [53] = Lipophilicity, logD of the compound at pH 3; assay type: physicochemical; conditions: buffer
# Staphylococcus aureus [54] = test: Bactericidal activity against methicillin-sensitive Staphylococcus aureus ATCC 29213 assessed as log reduction in bacterial cell number at MIC after 8 hrs by time-kill curve analysis; assay type: functional
# Staphylococcus aureus [55] = test: Antibacterial activity against methicillin-sensitive Staphylococcus aureus ATCC 29213 after 20 to 24 hrs; assay type: functional
# Pseudomonas aeruginosa [56] = test: Antibacterial activity against Pseudomonas aeruginosa ATCC 27853 after 20 to 24 hrs; assay type: functional
compound,measurement,setting,value
CC(C)(C)c1ccc(/C=N/NC(=N)N/N=C/c2ccc(C(C)(C)C)cc2)cc1,logD,[1],> 5.3
same,Activity,Staphylococcus aureus [2],inactive
same,MIC90,Staphylococcus aureus [3],38.6 µM
same,MBC,Staphylococcus aureus [4],4.8 µM
same,Selectivity Index,[5],2
same,Activity,Staphylococcus aureus [6],>=4 log10CFU/ml
same,Activity,Staphylococcus aureus [7],>=4 log10CFU/ml
same,Ratio,Staphylococcus aureus [8],1
same,Activity,Staphylococcus aureus [9],inactive
same,Activity,Staphylococcus aureus [10],inactive
same,MBC,Staphylococcus aureus [11],4.8 µM
same,MIC,Escherichia coli [12],> 400 µM
same,GI50 at 24 h,[13],26.3 µM
same,half-life,[14],25 min
same,Ratio,Staphylococcus aureus [15],1
same,MIC90,Staphylococcus aureus [16],> 250 µM
same,MIC90,Staphylococcus aureus [17],4.8 µM
same,Selectivity Index,[18],2
same,MIC90,Staphylococcus aureus [19],4.8 µM
same,Activity,Staphylococcus aureus [20],>=4 log10CFU/ml
same,MIC,Enterococcus,29 µM
same,MIC90,Staphylococcus aureus [21],> 250 µM
same,Activity,[22],Non-toxic
same,MIC90,Staphylococcus aureus [23],> 250 µM
same,MIC90,Staphylococcus aureus [24],> 250 µM
same,MBC,Staphylococcus aureus [25],4.8 µM
same,Ratio,Staphylococcus aureus [26],1
same,Selectivity Index,[27],2
same,MBC,Staphylococcus aureus [28],4.8 µM
same,MIC90,Staphylococcus aureus [29],4.8 µM
same,Ratio,Staphylococcus aureus [30],1
same,Activity,Staphylococcus aureus [31],inactive
same,MIC,Staphylococcus aureus [32],24.2 µM
same,microsomal CLint,[33],70 µL/min/mg
same,MIC90,Staphylococcus aureus [34],> 250 µM
same,Activity,Staphylococcus aureus [35],inactive
same,Selectivity Index,[36],2
same,GI50 at 24 h,[37],28.8 µM
same,microsomal CLint,[38],89 µL/min/mg
same,Activity,Staphylococcus aureus [39],inactive
same,solubility,[40],< 1.6 µg/mL
same,MIC90,Staphylococcus aureus [41],4.8 µM
same,Activity,Staphylococcus aureus [42],>=4 log10CFU/ml
same,Activity,Staphylococcus aureus [43],inactive
same,MBC,Staphylococcus aureus [44],4.8 µM
same,Activity,Staphylococcus aureus [45],>=4 log10CFU/ml
same,solubility,[46],< 1.6 µg/mL
same,Activity,Staphylococcus aureus [47],inactive
same,Activity,Staphylococcus aureus [48],>=4 log10CFU/ml
same,Activity,Staphylococcus aureus [49],>=4 log10CFU/ml
same,MIC90,Pseudomonas aeruginosa [50],> 250 µM
same,half-life,[51],20 min
same,MIC90,Escherichia coli [52],> 250 µM
same,logD,[53],4.9
same,Activity,Staphylococcus aureus [54],>=4 log10CFU/ml
same,MIC90,Staphylococcus aureus [55],4.8 µM
same,MIC,Pseudomonas aeruginosa [56],> 400 µM
